Assays:
[1] = Particle size and polydispersity index of nanoparticle compositions (Zetasizer Nano ZS); assay type: physicochemical; conditions: Table 1A; lipid:DSPC:cholesterol:PEG-DMG 50:10:38.5:1.5 mol %
Outline: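 Size and PDI measured by Zetasizer Nano ZS in 1×PBS (zeta potential in 15 mM PBS). Lipid nanoparticles contained test ionizable lipid:DSPC:cholesterol:PEG-DMG at 50:10:38.5:1.5 mol % with N1-methyl-pseudouridine mRNA encoding luciferase or hEPO.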

modified luciferase = experiment: Luciferase expression in liver, lung, spleen and femur 6 hours after intravenous administration to mice; assay type: in vivo; conditions: 6 hours after intravenous 0.5 mpk, mice
Outline: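 Nanoparticle formulations of the modified luciferase were given intravenously to mice (n=3) at 0.5 mpk. Bioluminescence was measured after 6 hours as total light flux. Standard MC3 formulation and PBS run as controls.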

IL-6, IP-10 = experiment: Cytokine induction (IL-6, IP-10) in mice 6 hours after intravenous administration; assay type: in vivo; design: unit not given here; conditions: intravenous 0.5 mpk
From the text: The introduction of foreign material into a mammalian body induces an innate immune response that promotes cytokine production. Such immune responses to, for example, nanoparticle compositions including therapeutic and/or prophylactics, are undesirable. The induction of certain cytokines is thus measured to evaluate the […] of nanoparticle compositions. The concentrations of various cytokines in mice upon intravenous administration of nanoparticle compositions presented in Table 1A at a dosage of 0.5 mpk was measured at 6 hours. The standard MC3 formulation and a PBS control were also tested. As is evident in Table 7, IL-6 induction was highest for compositions including Compounds 1, 3, 9, 19, and 26, while IP-10 induction was highest for compositions including Compounds 3, 4, 7, 20, and 26. IL-6 induction was lowest for compositions including Compounds 4, 11, 12, and 28. IP-10 induction was lowest for compositions including Compounds 10, 11, 12, 13, 15, 17, and 18.

[2] = Encapsulation efficiency of RNA in nanoparticle compositions (RIBOGREEN assay); assay type: physicochemical; conditions: Table 1A; lipid:DSPC:cholesterol:PEG-DMG 50:10:38.5:1.5 mol %
Outline: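 Lipid nanoparticles (ionisable lipid:DSPC:cholesterol:PEG-DMG 50:10:38.5:1.5 mol %) carrying N1-methylpseudouridine luciferase or hEPO mRNA diluted to about 5 μg/mL in TE, pH 7.5, with or without 2% Triton X-100, 15 min at 37° C. RiboGreen fluorescence (ex ~480, em ~520 nm) blank-subtracted; free RNA = intact/disrupted signal.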

SMILES | Size [1] | Cytokine induction, IL-6 (IL-6, IP-10) | Cytokine induction, IP-10 (IL-6, IP-10) | EE [2] | Total Flux, Femur (modified luciferase) | Total Flux, Liver (modified luciferase) | Total Flux, Lung (modified luciferase) | Total Flux, Spleen (modified luciferase)
CCCCCCCCCCCCCCCCCCN(CCO)CCCCCCCC(=O)OC(CCCCCCCC)CCCCCCCC [Compound 1, Heptadecan-9-yl 8-((2-hydroxyethyl)(octadecyl)amino)octanoate] | 72.7 nm | 267.24 | 687.14 |  | 7.52E+05 | 4.02E+08 | 1.72E+06 | 4.27E+06
CCCCCCCCCOC(=O)CCCCCCCN(CCCCCCCC(=O)OC(CCCCCCCC)CCCCCCCC)CCOC(C)=O [Compound 9, Heptadecan-9-yl 8-((2-acetoxyethyl)(8-(nonyloxy)-8-oxooctyl)amino) octanoate] | 68.5 nm | 317.45 | 366.53 | 75.7% | 2.57E+04 | 4.30E+05 | 2.56E+04 | 5.51E+04
CCCCCCCCCOC(=O)CCCCCCCN(CCCCCCCC(=O)OC(CCCCCCCC)CCCCCCCC)CC(C)O (centres unmarked) [Compound 10, Heptadecan-9-yl 8-((2-hydroxypropyl)(8-(nonyloxy)-8-oxooctyl)amino) octanoate] | 102.9 nm | 88.81 | 138.16 | 89.60% | 5.09E+05 | 3.22E+08 | 8.85E+05 | 8.17E+06
CCCCCCCCCOC(=O)CCCCCCCN(CCCCCCCC(=O)OC(CCCCCCCC)CCCCCCCC)C[C@H](C)O [Compound 12, Heptadecan-9-yl (S)-8-((2-hydroxypropyl)(8-(nonyloxy)-8-oxooctyl)amino)octanoate] | 116.7 nm | 3.88 | 32.03 | 92.44% |  | 6.84E+08 | 7.45E+06 | 6.82E+07
CCCCCCCCCOC(=O)CCCCCCCN(CCCCCCCC(=O)OC(CCCCCCCC)CCCCCCCC)CC(O)CC (centres unmarked) [Compound 13, Heptadecan-9-yl 8-((2-hydroxybutyl)(8-(nonyloxy)-8-oxooctyl)amino) octanoate] | 79.4 nm | 29.07 | 126.29 | 92.28% | 1.35E+05 | 2.25E+07 | 2.21E+05 | 7.09E+05
CCCCCCCCCOC(=O)CCCCCCCN(CCCCCCCC(=O)OC(CCCCCCCC)CCCCCCCC)CCOC [Compound 15, Heptadecan-9-yl 8-((2-methoxyethyl)(8-(nonyloxy)-8-oxooctyl)amino)octanoate] | 111.1 nm | 64.65 | 184.30 | 92.47% | 5.93E+04 | 6.23E+06 | 6.41E+04 | 9.01E+05
CCCCCC/C=C\COC(=O)CCCCCCCN(CCO)CCCCCCCC(=O)OC/C=C\CCCCCC [Compound 139, Di((Z)-non-2-en-1-yl) 8,8′-((2-hydroxyethyl)azanediyl)dioctanoate] |  | 23.57 | 153.36 | 78.2% | 5.12E+04 | 8.27E+05 | 5.26E+04 | 2.10E+06
CCCCCCCCCCCOC(=O)CCCCCN(CCO)CCCCCC(=O)OCCCCCCCCCCC [Compound 141, Diundecyl 6,6′-((2-hydroxyethyl)azanediyl)dihexanoate] | 91.3 nm | 327.15 | 1072.04 | 94.1% | 2.86E+04 | 1.59E+05 | 3.85E+04 | 6.29E+04

Continued, in another order:

Size [1] | Cytokine induction, IL-6 (IL-6, IP-10) | Cytokine induction, IP-10 (IL-6, IP-10) | EE [2] | SMILES | Total Flux, Femur (modified luciferase) | Total Flux, Liver (modified luciferase) | Total Flux, Lung (modified luciferase) | Total Flux, Spleen (modified luciferase)
83.9 nm | 70.95 | 468.86 | 93.88% | CCCCCCCCCCCCCCN(CCO)CCCCCCCC(=O)OC(CCCCCCCC)CCCCCCCC [Compound 2, Heptadecan-9-yl 8-((2-hydroxyethyl)(tetradecyl)amino)octanoate] | 3.86E+06 | 4.87E+09 | 2.52E+07 | 5.77E+07
120.5 nm | 13.1375 | 2253.09 | 95.10% | CCCCCCCCC(CCCCCCCC)OC(=O)CCCCCCCN(CCO)CCCCCCCC [Compound 4, Heptadecan-9-yl 8-((2-hydroxyethyl)(octyl)amino)octanoate] |  | 5.26E+09 | 6.22E+07 | 4.09E+08
 | 94.07 | 487.16 | 77.07% | CCCCCCCCC(CCCCCCCC)OC(=O)CCCCCCCN(CCO)CCCCCC [Compound 5, Heptadecan-9-yl 8-(hexyl(2-hydroxyethyl)amino)octanoate] | 1.22E+06 | 5.84E+07 | 1.89E+06 | 1.55E+08
129.6 nm | 0.14 | 44.84 | 92.47% | CCCCCCCCCOC(=O)CCCCCCCN(CCCCCCCC(=O)OC(CCCCCCCC)CCCCCCCC)C[C@@H](C)O [Compound 11, Heptadecan-9-yl (R)-8-((2-hydroxypropyl)(8-(nonyloxy)-8-oxooctyl)amino)octanoate] |  | 8.03E+08 | 1.35E+07 | 1.04E+08
119.0 nm | 32.01 | 206.75 | 91.32% | CCCCCCCCCOC(=O)CCCCCCCN(CCCCCCCC(=O)OC(CCCCCCCC)CCCCCCCC)CCCOC [Compound 16, Heptadecan-9-yl 8-((3-methoxypropyl)(8-(nonyloxy)-8-oxooctyl)amino) octanoate] | 2.55E+05 | 3.17E+07 | 4.18E+05 | 5.43E+06
85.2 nm | 138.43 | 156.41 | 91.84% | CCCCCCCCCOC(=O)CCCCCCCN(CCCCCCCC(=O)OC(CCCCCCCC)CCCCCCCC)CCOCCN(C)C [Compound 17, Heptadecan-9-yl 8-((2-(2-(dimethylamino)ethoxy)ethyl) (8-(nonyloxy)-8-oxooctyl)amino)octanoate] | 9.55E+04 | 5.52E+05 | 9.95E+04 | 5.58E+06
80.2 nm | 90.54 | 976.50 | 96.00% | CCCCCCCCCOC(=O)CCCCCCCN(CCCCCCCC(=O)OC(CCCCCCCC)CCCCCCCC)C1CCCCC1O (centres unmarked) [Compound 22, Heptadecan-9-yl 8-((2-hydroxycyclohexyl)(8-(nonyloxy)-8-oxooctyl)amino)octanoate] | 1.16E+05 | 4.00E+07 | 4.73E+05 | 1.57E+06
99.4 nm | 17.47 | 283.13 |  | CCCCCCCCC(CCCCCCCC)OC(=O)CCCCCCCN(CCO)CCCCCCCC(=O)OCC1CC1CCCCCC (centres unmarked) [Compound 28, Heptadecan-9-yl 8-((8-((2-hexylcyclopropyl)methoxy)-8-oxooctyl)(2-hydroxyethyl)amino)octanoate] |  | 1.22E+10 | 2.17E+08 | 1.80E+08
120.3 nm | 282.82 | 187.83 | 89.2% | CCCCCCCC/C=C\COC(=O)CCCCCN(CCO)CCCCCC(=O)OC/C=C\CCCCCCCC [Compound 140, Di((Z)-undec-2-en-1-yl) 6,6′-((2-hydroxyethyl)azanediyl)dihexanoate] | 3.26E+04 | 4.21E+05 | 2.14E+04 | 2.22E+05

— US10857105B2, “Compounds and compositions for intracellular delivery of therapeutic agents” (ModernaTX, Inc., priority 2017, dated 2020)
